Data as given in paper PMC12406203 (Journal of Medicinal Chemistry, 2025).
“And” between values parts separate entries of the source, which are not always exact repeats. Equal entries are not always repeated.

Tests used:
LKB1 = biological target: T1, LKB1 (Homo sapiens, UniProt Q15831); assay: KINOMEscan; assay type: binding
T1 construct: purchased Eurofins DiscoverX, LLC; host or cells: E. coli (BL21-derived, T7 phage) or HEK-293
T1 sequence (Q15831 1-433): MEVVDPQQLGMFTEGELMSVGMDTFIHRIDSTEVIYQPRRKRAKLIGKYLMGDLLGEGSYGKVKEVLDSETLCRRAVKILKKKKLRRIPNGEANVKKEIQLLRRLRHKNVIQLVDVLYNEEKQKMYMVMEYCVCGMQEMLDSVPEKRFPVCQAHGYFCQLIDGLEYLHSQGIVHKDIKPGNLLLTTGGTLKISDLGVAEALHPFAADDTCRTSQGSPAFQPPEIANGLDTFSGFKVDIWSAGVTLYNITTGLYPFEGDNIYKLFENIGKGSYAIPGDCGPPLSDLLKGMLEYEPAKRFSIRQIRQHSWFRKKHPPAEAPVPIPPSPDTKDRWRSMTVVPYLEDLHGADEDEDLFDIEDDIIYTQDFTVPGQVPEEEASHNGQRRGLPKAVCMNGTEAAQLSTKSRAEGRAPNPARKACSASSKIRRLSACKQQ
Experimental: (§1) The kinase inhibition profile of compounds 94 and 95 was assessed against 103 protein kinases by Eurofins DiscoverX, LLC., using the KINOMEscan assay. Kinase-tagged T7 phage strains were grown in parallel in 24-well blocks in an E. coli host derived from the BL21 strain. E. coli were grown to log-phase and infected with T7 phage from a frozen stock (multiplicity of infection = 0.4) and incubated with shaking at 32 °C until lysis (90–150 min). The lysates were centrifuged (6000g) and filtered (0.2 μm) to remove cell debris. The remaining kinases were produced in HEK-293 cells and subsequently tagged with DNA for qPCR detection. […] The liganded beads were blocked with excess biotin and washed with blocking buffer (SeaBlock (Pierce), 1% BSA, 0.05% Tween 20, 1 mM DTT) to remove unbound ligand and to reduce nonspecific phage binding. […] Test compounds were prepared as 100× stocks in 100% DMSO and directly diluted into the assay. All reactions were performed in polypropylene 384-well plates in a final volume of 0.02 mL. […] The kinase concentration in the eluates was measured by qPCR.
(§2) The compound(s) were screened at the concentration(s) requested, and results for primary screen binding interactions are reported as RA (%), where lower numbers indicate stronger hits in the matrix. RA=(testcompoundsignal−PCsignal/NCsignal−PCsignal)×100

CDK7 = biological target: T2, CDK7 (Homo sapiens, UniProt P50613); assay: KINOMEscan; assay type: binding
T2 construct: purchased Eurofins DiscoverX, LLC; host or cells: E. coli BL21-derived (T7 phage) or HEK-293
T2 sequence (P50613 whole entry): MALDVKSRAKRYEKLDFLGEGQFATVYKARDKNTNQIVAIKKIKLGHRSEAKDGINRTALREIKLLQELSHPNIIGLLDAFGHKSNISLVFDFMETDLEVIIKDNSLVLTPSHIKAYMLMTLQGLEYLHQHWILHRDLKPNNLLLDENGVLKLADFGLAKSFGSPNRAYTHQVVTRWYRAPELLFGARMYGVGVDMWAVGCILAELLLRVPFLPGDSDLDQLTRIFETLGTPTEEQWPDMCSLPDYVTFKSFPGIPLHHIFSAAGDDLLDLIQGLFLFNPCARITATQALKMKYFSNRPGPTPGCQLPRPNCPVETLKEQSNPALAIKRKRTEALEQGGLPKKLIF
Experimental: as §1, §2

BTK [1] = biological target: T3, BTK (Homo sapiens, UniProt Q06187); assay: KINOMEscan; assay type: binding
T3 construct: purchased Eurofins DiscoverX, LLC; host or cells: E. coli BL21-derived (T7 phage) or HEK-293
T3 sequence (Q06187 whole entry): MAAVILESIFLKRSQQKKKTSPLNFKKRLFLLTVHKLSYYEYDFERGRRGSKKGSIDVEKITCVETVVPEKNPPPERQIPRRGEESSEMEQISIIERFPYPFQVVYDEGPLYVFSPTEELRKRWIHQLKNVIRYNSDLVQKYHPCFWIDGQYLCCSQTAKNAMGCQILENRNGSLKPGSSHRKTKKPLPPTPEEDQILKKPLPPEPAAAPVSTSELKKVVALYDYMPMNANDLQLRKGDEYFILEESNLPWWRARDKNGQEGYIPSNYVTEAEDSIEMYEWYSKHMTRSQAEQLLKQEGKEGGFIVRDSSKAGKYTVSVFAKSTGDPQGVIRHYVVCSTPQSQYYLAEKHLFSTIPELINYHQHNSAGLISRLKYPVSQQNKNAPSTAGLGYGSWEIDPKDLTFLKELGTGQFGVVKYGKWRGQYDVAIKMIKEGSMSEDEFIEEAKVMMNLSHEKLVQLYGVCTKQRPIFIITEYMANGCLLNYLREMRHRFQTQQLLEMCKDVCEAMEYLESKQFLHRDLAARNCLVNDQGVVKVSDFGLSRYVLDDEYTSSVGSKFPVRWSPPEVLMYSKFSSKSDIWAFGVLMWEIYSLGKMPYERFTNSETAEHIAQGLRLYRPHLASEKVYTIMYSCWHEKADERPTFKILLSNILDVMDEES
Experimental: as §1, §2

BTK [2] = system: BTK
BV2 cells = assay: MTS metabolic activity (cytotoxicity); assay type: cell-based, murine; conditions: BV2, MTS assay, 24 h, concentrations of 5 μM or less
Experimental: The human hepatocellular carcinoma HepG2 and human neuroblastoma SH-SY5Y cell lines were purchased from American Type Culture Collection (Manassas, VA, USA). The murine microglia BV2 cells were a generous gift from Dr. Biljana Božić Nedeljković (University of Belgrade, Belgrade, Serbia). Cells were cultured in Advanced Dulbecco’s modified Eagle’s medium (Gibco, Thermo Fisher Scientific, Waltham, MA, USA) supplemented with 10% fetal bovine serum (FBS, Gibco), 2 mM L-glutamine, 50 U/mL penicillin and 50 μg/mL streptomycin (Sigma, St. Louis, MO, USA) in a humidified atmosphere of 95% air and 5% CO2 at 37 °C, and grown to 80% confluence. Prior to cell treatment, complete medium was replaced with serum-free medium. […]
BV2 cells (5 × 10^3/well) and HepG2 and SH-SY5Y cells (1 × 10^4/well) were seeded in 96-well plates and assessed by MTS ([3-(4,5-dimethylthiazol-2-yl)-5-(3-carboxymethoxyphenyl)-2-(4-sulfophenyl)-2H tetrazolium, inner salt) assay for their response to compounds 94 and 95. Cells were treated with increasing concentrations of compounds (1–100 μM) in serum-free medium, and metabolic activity was assessed after 24 h using the CellTiter 96 Aqueous One Solution Cell Proliferation Assay (Promega, Madison, WI, USA), in accordance with the manufacturer’s instructions. Absorbance was measured with an automatic microplate reader (Tecan Safire^2, Switzerland) at a wavelength of 492 nm. […]

[3] = system: JAK3(JH1domain-catalytic)
HepG2 cells = assay: MTS metabolic activity (cytotoxicity); assay type: cell-based, human; conditions: HepG2, MTS assay, 24 h, concentrations of 5 μM or less
Experimental: (§3) The human hepatocellular carcinoma HepG2 and human neuroblastoma SH-SY5Y cell lines were purchased from American Type Culture Collection (Manassas, VA, USA). The murine microglia BV2 cells were a generous gift from Dr. Biljana Božić Nedeljković (University of Belgrade, Belgrade, Serbia). Cells were cultured in Advanced Dulbecco’s modified Eagle’s medium (Gibco, Thermo Fisher Scientific, Waltham, MA, USA) supplemented with 10% fetal bovine serum (FBS, Gibco), 2 mM L-glutamine, 50 U/mL penicillin and 50 μg/mL streptomycin (Sigma, St. Louis, MO, USA) in a humidified atmosphere of 95% air and 5% CO2 at 37 °C, and grown to 80% confluence. Prior to cell treatment, complete medium was replaced with serum-free medium. Compounds 94 and 95 were prepared as a stock solution of 30 mM in DMSO and were used at concentrations of 1–100 μM.
(§4) BV2 cells (5 × 10^3/well) and HepG2 and SH-SY5Y cells (1 × 10^4/well) were seeded in 96-well plates and assessed by MTS ([3-(4,5-dimethylthiazol-2-yl)-5-(3-carboxymethoxyphenyl)-2-(4-sulfophenyl)-2H tetrazolium, inner salt) assay for their response to compounds 94 and 95. Cells were treated with increasing concentrations of compounds (1–100 μM) in serum-free medium, and metabolic activity was assessed after 24 h using the CellTiter 96 Aqueous One Solution Cell Proliferation Assay (Promega, Madison, WI, USA), in accordance with the manufacturer’s instructions. Absorbance was measured with an automatic microplate reader (Tecan Safire^2, Switzerland) at a wavelength of 492 nm. Results are presented as a percentage of the control (DMSO).

SH-SY5Y cells = assay: MTS metabolic activity (cytotoxicity); assay type: cell-based, human; conditions: MTS assay, 24 h, concentrations of 5 μM or less
Experimental: as §3, §4

[4] = system: mice (motor coordination); assay: Rotarod test; conditions: 10 mg/kg i.p., mice
Experimental: For behavioral tests, the mice were selected randomly; each group consisted of 7–10 mice.
In the rotarod, locomotor activity, and MWM tests, only one dose effective in the scopolamine model of amnesia was evaluated.
Three days before the rotarod test, the mice were trained on the rotarod apparatus (Rotarod apparatus, May Commat RR0711, Turkey; rod diameter: 2 cm) that was rotated at a fixed speed of 18 rpm. In each training session, the mice were placed on the rotating rod for 3 min with an unlimited number of trials. The proper experiment was performed 24 h after the last training trial. […] Motor impairments in mice were defined as the inability to remain on the rotarod apparatus for 1 min. The results are expressed as the mean time spent on the rotarod.

Row | Compound | RA @ 1000nM (ERBB4) [%] | RA @ 10000nM (ERBB4) [%] | IC50 (hBChE) | IC50 (p38α MAPK) | RA @ 1000nM (EPHA2) [%] | RA @ 10000nM (EPHA2) [%] | RA @ 1000nM (DYRK1B) [%] | RA @ 10000nM (DYRK1B) [%] | RA @ 1000nM (CDK2) [%] | RA @ 10000nM (CDK2) [%] | RA @ 1000nM (TGFBR1) [%] | RA @ 10000nM (TGFBR1) [%] | RA @ 1000nM (CSNK1D) [%] | RA @ 10000nM (CSNK1D) [%] | RA @ 1000nM (LKB1) [%] | RA @ 10000nM (LKB1) [%] | RA @ 1000nM (CDK7) [%] | RA @ 10000nM (CDK7) [%] | RA @ 1000nM (BTK [1]) [%] | RA @ 10000nM (BTK [1]) [%] | further results
1 | CN(C)CCNC(=O)c1cc2c(cnn2CC2CCCCC2)cc1Cc1ccc(F)cc1F [Compound 95, 1-(Cyclohexylmethyl)-5-(2,4-difluorobenzyl)-N-(2-(dimethylamino)ethyl)-1H-indazole-6-carboxamide] | 93 | 81 | 772 nM and 350 ng/mL | 191 nM and 87 ng/mL | 100 | 100 | 95 | 100 | 99 | 100 | 100 | 100 | 93 | 84 | 100 | 86 | 88 | 77 | 100 | 100 | RA @ 1000nM (BTK [2]): 100%; RA @ 10000nM (BTK [2]): 100%; cell viability (BV2 cells): did not affect cell viability; RA @ 1000nM [3]: 100%; RA @ 10000nM [3]: 100%; cell viability (HepG2 cells): did not affect cell viability; cell viability (SH-SY5Y cells): did not affect cell viability; motor adverse effects (rotarod test) [4]: no motor adverse effects; RA @ 1000nM (PAK4): 100%; RA @ 10000nM (PAK4): 88%
2 | CC(C)Cn1ncc2cc(Cc3ccc(F)cc3F)c(C(=O)NCCN(C)C)cc21 [Compound 94, 5-(2,4-Difluorobenzyl)-N-(2-(dimethylamino)ethyl)-1-isobutyl-1H-indazole-6-carboxamide] | 85 | 83 | 652 nM and 270 ng/mL | 377 nM and 156 ng/mL | 97 | 100 | 100 | 85 | 82 | 97 | 100 | 100 | 86 | 79 | 100 | 96 | 79 | 86 | 100 | 100 | RA @ 1000nM (BTK [2]): 100%; RA @ 10000nM (BTK [2]): 100%; cell viability (BV2 cells): did not affect cell viability; RA @ 1000nM [3]: 100%; RA @ 10000nM [3]: 100%; cell viability (HepG2 cells): did not affect cell viability; cell viability (SH-SY5Y cells): did not affect cell viability; motor adverse effects (rotarod test) [4]: no motor adverse effects; RA @ 1000nM (PAK4): 97%; RA @ 10000nM (PAK4): 96%
